Source: US11051515B2, “3-acyl-benzamides and their use as herbicides” (Bayer Aktiengesellschaft, priority 2017, dated 2021)

Tests used:
ALOMY [1] = test: Pre-emergence action against ALOMY; format: in vivo, Alopecurus myosuroides; conditions: dosage 320 g/ha, pre-emergence, scored visually after 3 weeks vs untreated controls, 100% = plants have died, 0% = like control plants
Method in brief: (§1)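 Seeds sown in sandy loam in wood-fiber pots and covered with soil. Greenhouse growth; visual damage scored after 3 weeks versus untreated controls (100% = dead, 0% = like control).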

AVEFA [2] = test: Pre-emergence action against AVEFA; format: in vivo, Avena fatua; conditions: dosage 320 g/ha, scored visually after 3 weeks vs untreated controls
Method in brief: as §1

CYPES = test: Pre-emergence action against CYPES; format: in vivo, Cyperus esculentus; conditions: pre-emergence, dosage 320 g/ha, scored visually after 3 weeks vs untreated controls
Method in brief: as §1

ECHCG [3] = test: Pre-emergence action against ECHCG; format: in vivo, Echinochloa crus-galli; conditions: pre-emergence, dosage 320 g/ha, scored visually after 3 weeks vs untreated controls
Method in brief: as §1

LOLMU [4] = test: Pre-emergence action against LOLMU; format: in vivo, Lolium multiflorum; conditions: dosage 320 g/ha, scored visually after 3 weeks vs untreated controls
Method in brief: as §1

SETVI [5] = test: Pre-emergence action against SETVI; format: in vivo, Setaria viridis; conditions: pre-emergence, dosage 320 g/ha, scored visually after 3 weeks vs untreated controls
Method in brief: as §1

ABUTH [6] = test: Pre-emergence action against ABUTH; format: in vivo, Abutilon theophrasti; conditions: pre-emergence, dosage 320 g/ha, scored visually after 3 weeks vs untreated controls
Method in brief: as §1

AMARE [7] = test: Pre-emergence action against AMARE; format: in vivo, Amaranthus retroflexus; conditions: pre-emergence, dosage 320 g/ha, scored visually after 3 weeks vs untreated controls
Method in brief: as §1

MATIN [8] = test: Pre-emergence action against MATIN; format: in vivo, Matricaria inodora; conditions: Dosage 320 g/ha, pre-emergence
Method in brief: as §1

POLCO [9] = test: Pre-emergence action against POLCO; format: in vivo, Polygonum convolvulus; conditions: Fallopia convolvulus, 504 h; Dosage 320 g/ha, pre-emergence
Method in brief: as §1

STEME [10] = test: Pre-emergence action against STEME; format: in vivo, Stellaria media; conditions: Dosage 320 g/ha, pre-emergence
Method in brief: as §1

VIOTR [11] = test: Pre-emergence action against VIOTR; format: in vivo, Viola tricolor; conditions: Dosage 320 g/ha, pre-emergence
Method in brief: as §1

VERPE [12] = test: Pre-emergence action against VERPE; format: in vivo, Veronica persica; conditions: Dosage 320 g/ha, pre-emergence
Method in brief: as §1

ALOMY [13] = test: Post-emergence action against ALOMY; format: in vivo, Alopecurus myosuroides; conditions: Dosage 80 g/ha, post-emergence
Method in brief: (§2)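 Post-emergence foliar spray on greenhouse plants at the one-leaf stage, using wettable-powder or emulsion-concentrate formulations in water (600 to […], plus 0.2% wetting agent). Damage scored by eye roughly 3 weeks later against untreated plants: 0% = like control, 100% = dead.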

AVEFA [14] = test: Post-emergence action against AVEFA; format: in vivo, Avena fatua; conditions: post-emergence, dosage 80 g/ha, visual assessment about 3 weeks after treatment vs untreated controls
Method in brief: as §2

ECHCG [15] = test: Post-emergence action against ECHCG; format: in vivo, Echinochloa crus-galli; conditions: post-emergence, dosage 80 g/ha, visual assessment about 3 weeks after treatment vs untreated controls
Method in brief: as §2

LOLMU [16] = test: Post-emergence action against LOLMU; format: in vivo, Lolium multiflorum; conditions: dosage 80 g/ha, visual assessment about 3 weeks after treatment vs untreated controls
Protocol: Seeds of monocotyledonous and dicotyledonous weed and crop plants are laid out in sandy loam soil in wood-fiber pots, covered with soil and cultivated in a greenhouse under good growth conditions. 2 to 3 weeks after sowing, the test plants are treated at the one-leaf stage. The compounds of the invention, formulated in the form of wettable powders (WP) or as emulsion concentrates (EC), are then sprayed onto the green parts of the plants in the form of an aqueous suspension or emulsion at a water application rate equating to […], with addition of 0.2% wetting agent. After the test plants have been left to stand in the greenhouse under optimal growth conditions for about 3 weeks, the action of the preparations is assessed visually in comparison to untreated controls (herbicidal action in percent (%): 100% activity=the plants have died, 0% activity=like control plants). […] At the same time, inventive compounds leave Gramineae crops such as barley, wheat, rye, millet/Sorghum, corn or rice virtually undamaged when applied post-emergence, even at high active ingredient dosages. In addition, some substances are also harmless to dicotyledonous crops such as soya, cotton, oilseed rape, sugar beet or potatoes. Some of the compounds according to the invention have high selectivity and are therefore suitable for controlling unwanted vegetation in agricultural crops by the post-emergence method. The data of Tables B18 to B34 below illustrate, in an exemplary manner, the […] herbicidal action of the compounds according to the invention, the herbicidal activity being stated in percent.

SETVI [17] = test: Post-emergence action against SETVI; format: in vivo, Setaria viridis; conditions: post-emergence, dosage 80 g/ha, visual assessment about 3 weeks after treatment vs untreated controls
Method in brief: as §2

ABUTH [18] = test: Post-emergence action against ABUTH; format: in vivo, Abutilon theophrasti; conditions: post-emergence, dosage 80 g/ha, visual assessment about 3 weeks after treatment vs untreated controls
Method in brief: as §2

AMARE [19] = test: Post-emergence action against AMARE; format: in vivo, Amaranthus retroflexus; conditions: post-emergence, dosage 80 g/ha, visual assessment about 3 weeks after treatment vs untreated controls
Method in brief: as §2

MATIN [20] = test: Post-emergence action against MATIN; format: in vivo, Matricaria inodora; conditions: post-emergence, dosage 80 g/ha, visual assessment about 3 weeks after treatment vs untreated controls
Method in brief: as §2

PHBPU [21] = test: Post-emergence action against PHBPU; format: in vivo, Pharbitis purpurea; conditions: post-emergence, dosage 80 g/ha
Method in brief: as §2

POLCO [22] = test: Post-emergence action against POLCO; format: in vivo, Polygonum convolvulus; conditions: post-emergence, dosage 80 g/ha
Method in brief: as §2

STEME [23] = test: Post-emergence action against STEME; format: in vivo, Stellaria media; conditions: Stellaria media, 504 h; post-emergence, dosage 80 g/ha
Method in brief: as §2

VIOTR [24] = test: Post-emergence action against VIOTR; format: in vivo, Viola tricolor; conditions: post-emergence, dosage 80 g/ha
Method in brief: as §2

VERPE [25] = test: Post-emergence action against VERPE; format: in vivo, Veronica persica; conditions: dosage 80 g/ha
Method in brief: as §2

PHBPU [26] = test: Pre-emergence action against PHBPU; format: in vivo, Pharbitis purpurea; conditions: Dosage 320 g/ha, pre-emergence
Method in brief: as §1

Structure (SMILES): CSc1ccc(C(=O)Nc2nnnn2C)c(Cl)c1C(C)=O [1-121]
- pest or weed control at 320 g/ha (ALOMY [1]; Alopecurus myosuroides, 504 h, read-out: Pre-emergence action against ALOMY (herbicidal activity in percent)): 90%
- pest or weed control at 320 g/ha (AVEFA [2]; Avena fatua, 504 h, read-out: Pre-emergence action against AVEFA (herbicidal activity)): 90%
- pest or weed control at 320 g/ha (CYPES; Cyperus esculentus, 504 h, read-out: Pre-emergence action against CYPES (herbicidal activity)): 90%
- pest or weed control at 320 g/ha (ECHCG [3]; Echinochloa crus-galli, 504 h, read-out: Pre-emergence action against ECHCG (herbicidal activity)): 100%
- pest or weed control at 320 g/ha (LOLMU [4]; Lolium multiflorum, 504 h, read-out: Pre-emergence action against LOLMU (herbicidal activity)): 90%
- pest or weed control at 320 g/ha (SETVI [5]; Setaria viridis, 504 h, read-out: SETVI (Table B8, pre-emergence herbicidal activity)): 100%
- pest or weed control at 320 g/ha (ABUTH [6]; Abutilon theophrasti, 504 h, read-out: Pre-emergence action against ABUTH (herbicidal activity)): 90%
- pest or weed control at 320 g/ha (AMARE [7]; Amaranthus retroflexus, 504 h, read-out: Pre-emergence action against AMARE (herbicidal activity)): 100%
- pest or weed control at 320 g/ha (MATIN [8]; Tripleurospermum inodorum, 504 h): 100%
- pest or weed control at 320 g/ha (POLCO [9]): 90%
- pest or weed control at 320 g/ha (STEME [10]; Stellaria media, 504 h): 90%
- pest or weed control at 320 g/ha (VIOTR [11]; Viola tricolor, 504 h): 100%
- pest or weed control at 320 g/ha (VERPE [12]; Veronica persica, 504 h): 100%
- pest or weed control at 80 g/ha (ALOMY [13]; Alopecurus myosuroides, 504 h): 90%
- pest or weed control at 80 g/ha (AVEFA [14]; Avena fatua, 504 h, read-out: Post-emergence action against AVEFA (herbicidal action in percent)): 90%
- pest or weed control at 80 g/ha (ECHCG [15]; Echinochloa crus-galli, 504 h, read-out: Post-emergence action against ECHCG (herbicidal action in percent)): 90%
- pest or weed control at 80 g/ha (LOLMU [16]; Lolium multiflorum, 504 h, read-out: Post-emergence action against LOLMU (herbicidal action in percent)): 90%
- pest or weed control at 80 g/ha (SETVI [17]; Setaria viridis, 504 h, read-out: Post-emergence action against SETVI (herbicidal action in percent)): 90%
- pest or weed control at 80 g/ha (ABUTH [18]; Abutilon theophrasti, 504 h, read-out: Post-emergence action against ABUTH (herbicidal action in percent)): 90%
- pest or weed control at 80 g/ha (AMARE [19]; Amaranthus retroflexus, 504 h, read-out: Post-emergence action against AMARE (herbicidal action in percent)): 90%
- pest or weed control at 80 g/ha (MATIN [20]; Tripleurospermum inodorum, 504 h, read-out: Post-emergence action against MATIN (herbicidal action in percent)): 100%
- pest or weed control at 80 g/ha (PHBPU [21]; Ipomoea purpurea, 504 h): 90%
- pest or weed control at 80 g/ha (POLCO [22]; Fallopia convolvulus, 504 h): 80%
- pest or weed control at 80 g/ha (STEME [23]): 100%
- pest or weed control at 80 g/ha (VIOTR [24]; Viola tricolor, 504 h): 90%
- pest or weed control at 80 g/ha (VERPE [25]; Veronica persica, 504 h): 100%

Structure (SMILES): CCn1nnnc1NC(=O)c1ccc(C(F)(F)F)c(C(=O)C2CC2)c1Cl [2-141]
- Pre-emergence action against ALOMY (herbicidal activity in percent) (ALOMY [1]): 100%
- Pre-emergence action against AVEFA (herbicidal activity) (AVEFA [2]): 100%
- Pre-emergence action against CYPES (herbicidal activity) (CYPES): 90%
- Pre-emergence action against ECHCG (herbicidal activity) (ECHCG [3]): 100%
- Pre-emergence action against LOLMU (herbicidal activity) (LOLMU [4]): 100%
- SETVI (Table B8, pre-emergence herbicidal activity) (SETVI [5]): 100%
- Pre-emergence action against ABUTH (herbicidal activity) (ABUTH [6]): 100%
- Pre-emergence action against AMARE (herbicidal activity) (AMARE [7]): 100%
- Pre-emergence action against MATIN (MATIN [8]): 100%
- Pre-emergence action against PHBPU (PHBPU [26]): 80%
- Pre-emergence action against STEME (STEME [10]): 90%
- Pre-emergence action against VIOTR (VIOTR [11]): 100%
- Pre-emergence action against VERPE (VERPE [12]): 100%
- Post-emergence action against ALOMY (ALOMY [13]): 90%
- Post-emergence action against AVEFA (herbicidal action in percent) (AVEFA [14]): 90%
- Post-emergence action against ECHCG (herbicidal action in percent) (ECHCG [15]): 90%
- Post-emergence action against LOLMU (herbicidal action in percent) (LOLMU [16]): 90%
- Post-emergence action against SETVI (herbicidal action in percent) (SETVI [17]): 90%
- Post-emergence action against ABUTH (herbicidal action in percent) (ABUTH [18]): 90%
- Post-emergence action against AMARE (herbicidal action in percent) (AMARE [19]): 90%
- Post-emergence action against MATIN (herbicidal action in percent) (MATIN [20]): 80%
- Post-emergence action against PHBPU (PHBPU [21]): 90
- Post-emergence action against POLCO (POLCO [22]): 90
- Post-emergence action against VIOTR (VIOTR [24]): 100
- Post-emergence action against VERPE (VERPE [25]): 80
